Counter-ions that a name gives are not always drawn.
Legend:
HCT116 [1] = settings: 72 h
Procedure: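 HCT116 control and MTA1-KO (CRISPR) HCT116 cells were seeded in 384-well plates (800 cells/well), treated 16 h later with 237 metabolism-related anticancer drugs at five doses (10 uM, 2 uM, 400 nM, 80 nM, 16 nM) for 72 h, two replicates; viability by CCK8. Values are % inhibition of viability relative to untreated cells, plus fitted IC50.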

HCT116 [2] = assay: viability inhibition vs untreated; higher = more cytotoxic; settings: 72 h

Structure (SMILES) | IC50 (HCT116 [1]; genotype: MTA1-KO) | IC50 (HCT116 [1]; genotype: control) | viability inhibition (HCT116 [2]; genotype: MTA1-KO, 16 nM) | viability inhibition (HCT116 [2]; genotype: MTA1-KO, 80 nM) | viability inhibition (HCT116 [2]; genotype: MTA1-KO, 400 nM) | viability inhibition (HCT116 [2]; genotype: MTA1-KO, 2000 nM) | viability inhibition (HCT116 [2]; genotype: MTA1-KO, 10000 nM) | viability inhibition (HCT116 [2]; genotype: control, 16 nM) | viability inhibition (HCT116 [2]; genotype: control, 80 nM) | viability inhibition (HCT116 [2]; genotype: control, 400 nM) | viability inhibition (HCT116 [2]; genotype: control, 2000 nM) | viability inhibition (HCT116 [2]; genotype: control, 10000 nM)
Cc1c(CN2CCN(c3cccc(C(F)(F)F)c3)CC2)cc(-c2ccccc2)n1NC(=O)c1ccncc1 [Sudoterb free base] | > 10 µM | > 10 µM | -13.3% | -15.8% | -16% | -17% | 44.1% | -4.96% | 1.24% | -11% | -15% | -4.96%
COc1cnc(NS(=O)(=O)c2ccc(N)cc2)nc1 [Sulfameter] | > 10 µM | > 10 µM | -10.8% | -13.8% | -0.547% | -4.82% | -3.61% | 0.414% | 5.13% | 12.1% | 8.51% | 0.478%
Nc1ccc(S(N)(=O)=O)cc1 [Sulfanilamide] | > 10 µM | > 10 µM | -4.56% | -14.5% | -27.6% | -20.9% | -19.4% | -9.12% | -7.95% | -13.7% | -13.7% | -7.82%
CC(C)(C)c1cc(O)ccc1O [TBHQ] | > 10 µM | > 10 µM | -1.6% | -25.5% | -23.4% | -13.4% | 41.7% | 16.6% | 25.3% | 20.9% | 17.7% | 17%
CNc1cc(-c2cccc(Cl)c2Cl)nc(N)n1 [TH287 hydrochloride] | 1.6 µM | 1.9 µM | 18.9% | 15.8% | 23% | 65.5% | 94.7% | 4.08% | 10.5% | 1.79% | 63.9% | 87.3%
Nc1nc(NC2CC2)cc(-c2cccc(Cl)c2Cl)n1 [TH588] | 5.34 µM | 8.67 µM | -0.076% | 6.2% | 2.73% | 14.7% | 80.3% | -7.89% | -5.19% | -7.31% | -7.46% | 74%
C=CC[C@@H]1/C=C(\C)C[C@H](C)C[C@H](OC)[C@H]2O[C@@](O)(C(=O)C(=O)N3CCCC[C@H]3C(=O)O[C@H](/C(C)=C/[C@@H]3CC[C@@H](O)[C@H](OC)C3)[C@H](C)[C@@H](O)CC1=O)[C@H](C)C[C@@H]2OC [Tacrolimus] | > 10 µM | > 10 µM | -4.95% | -4.18% | 0.155% | -5.39% | -7.24% | 5.2% | 13.7% | 18% | 7.23% | 7.94%
CO[C@H]1C[C@@H]2CC[C@@H](C)[C@@](O)(O2)C(=O)C(=O)N2CCCC[C@H]2C(=O)O[C@H]([C@H](C)C[C@@H]2CC[C@@H](OC(=O)C(C)(CO)CO)[C@H](OC)C2)CC(=O)[C@H](C)/C=C(\C)[C@@H](O)[C@@H](OC)C(=O)[C@H](C)C[C@H](C)/C=C/C=C/C=C/1C [Temsirolimus] | < 0.016 µM | > 10 µM | 56.3% | 49.2% | 48.4% | 46.7% | 60.5% | 12% | 10.7% | 8.05% | -1.62% | 46.1%
CC(=O)Nc1ccc(NC(=S)NC(=O)c2ccc(C(C)(C)C)cc2)cc1 [Tenovin-1] | 0.456 µM | 0.931 µM | -26.3% | -21.8% | 12.8% | 59.2% | 62.3% | -20.9% | -18.3% | 3.67% | 73.1% | 90.4%
CN(C)CCCCC(=O)Nc1ccc(NC(=S)NC(=O)c2ccc(C(C)(C)C)cc2)cc1 [Tenovin-6] | > 10 µM | 7.71 µM | -14.1% | -19.6% | -23.8% | -20.1% | 43.5% | -8.39% | 1.22% | 8.03% | 5.54% | 67.5%
CC(O)=C(C#N)C(=O)Nc1ccc(C(F)(F)F)cc1 [Teriflunomide] | > 10 µM | > 10 µM | -20.1% | -19.6% | -22.5% | -31.4% | -28.2% | 12.8% | -1.7% | -4.62% | -5.29% | 10.1%
O=c1oc2cc(O)ccc2s1 [Tioxolone] | > 10 µM | > 10 µM | -23.8% | -21.4% | -19% | -28.2% | -26.1% | 0.941% | -1.9% | -1.53% | -13.6% | -6.09%
CC1(C)O[C@@H]2[C@@H](CO[C@@]3(COS(N)(=O)=O)OC(C)(C)O[C@@H]23)O1 [Topiramate] | > 10 µM | > 10 µM | -4.79% | -13.2% | -12.6% | -13% | -6.53% | 0.571% | -0.663% | 3.41% | 3.1% | 12.4%
CCC(=O)N1CCN(c2ccc(-n3c(=O)ccc4cnc5ccc(-c6cnc7ccccc7c6)cc5c43)cc2C(F)(F)F)CC1 [Torin 1] | 0.324 µM | 1.8 µM | 2.4% | 8.65% | 52% | 70.7% | 80.9% | -14.3% | -3.02% | 4.25% | 56% | 62.3%
Nc1ccc(-c2ccc3ncc4ccc(=O)n(-c5cccc(C(F)(F)F)c5)c4c3c2)cn1 [Torin 2] | 0.134 µM | 0.289 µM | -2.56% | 37.4% | 77.4% | 88.6% | 104% | -9.67% | 18.6% | 72.5% | 87% | 108%
CC(C)n1nc(-c2cc3cc(O)ccc3[nH]2)c2c(N)ncnc21 [Torkinib] | > 10 µM | 8.06 µM | -28.4% | -28.6% | -28.2% | -9.28% | 27.1% | -1.58% | -1.28% | -0.73% | 8.7% | 65.9%
N[C@@H]1C[C@H]1c1ccccc1 [Tranylcypromine (2-PCPA) hydrochloride] | > 10 µM | > 10 µM | -22.8% | -17.9% | -14.3% | -18.2% | -15.3% | -0.159% | -12.9% | -1.62% | -5.71% | -28%
CC1=C(/C=C/C(C)=C/C=C/C(C)=C/C(=O)O)C(C)(C)CCC1 [Tretinoin] | > 10 µM | > 10 µM | -24.6% | -24.4% | -23.5% | -20.8% | -24.5% | -4.55% | -1.65% | -12.1% | -9.98% | -3.87%

From the supplement of paper PMC10477900
